In patent US7063946B2, “Methods, reagents, kits and apparatus for protein function analysis” (Meso Scale Technologies, LLC., priority 2001, dated 2006):

Target: T1, Fert2 (Mus musculus, UniProt P70451)
T1 construct: specificity data for proteins generated from a library of eighteen full-length clones; host or cells: rabbit reticulocyte lysate, TnT coupled transcription/translation
Assay: Kinase inhibitor profiling, pEY phosphorylation
Assay type: biochemical

T1 sequence (P70451 whole entry): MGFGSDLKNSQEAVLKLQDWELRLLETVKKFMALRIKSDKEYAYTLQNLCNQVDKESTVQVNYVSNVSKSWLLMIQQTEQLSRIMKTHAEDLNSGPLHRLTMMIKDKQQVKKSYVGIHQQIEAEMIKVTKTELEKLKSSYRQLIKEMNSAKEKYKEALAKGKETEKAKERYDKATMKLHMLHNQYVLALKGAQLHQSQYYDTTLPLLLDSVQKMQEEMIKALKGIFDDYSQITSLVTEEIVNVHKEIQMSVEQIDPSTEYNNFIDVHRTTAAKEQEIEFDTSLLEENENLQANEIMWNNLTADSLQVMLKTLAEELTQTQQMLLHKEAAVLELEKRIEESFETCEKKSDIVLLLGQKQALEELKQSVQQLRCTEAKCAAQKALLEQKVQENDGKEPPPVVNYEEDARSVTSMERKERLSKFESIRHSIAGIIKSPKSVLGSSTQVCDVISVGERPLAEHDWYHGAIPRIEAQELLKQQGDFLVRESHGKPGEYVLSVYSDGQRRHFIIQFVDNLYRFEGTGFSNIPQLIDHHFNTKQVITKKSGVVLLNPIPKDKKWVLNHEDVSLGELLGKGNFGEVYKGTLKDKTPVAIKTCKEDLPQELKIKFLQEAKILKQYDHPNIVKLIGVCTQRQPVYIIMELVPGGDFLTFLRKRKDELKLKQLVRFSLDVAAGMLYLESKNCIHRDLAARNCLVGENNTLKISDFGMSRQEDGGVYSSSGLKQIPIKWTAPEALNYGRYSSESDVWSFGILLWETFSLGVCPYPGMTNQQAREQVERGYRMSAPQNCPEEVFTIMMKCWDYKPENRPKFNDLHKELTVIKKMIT

Q: For `COc1c(C=O)c(O)cc2c1C(=O)c1ccccc1C2=O` [Damnacanthal], which “Inhibition specificity towards pEY phosphorylation at 10X IC50, Fert2” value is on record?
A: The value was “L (low inhibition (“L”=between 50–75% of the activity remaining))”.
